Experimental data from ChEMBL document CHEMBL1129340, “New prolyl endopeptidase inhibitors: in vitro and in vivo activities of azabicyclo[2.2.2]octane, azabicyclo[2.2.1]heptane, and perhydroindole derivatives” (J Med Chem, 1996).

Experiment: Half life was evaluated
Format: ADME

O=C([C@@H]1C2CCC(CC2)N1C(=O)[C@@H]1C[C@@H]1c1ccccc1)N1CCCC1
half-life: 7 h
